In paper PMC9458217, “Synthesis and Biological Evaluation of Cassane Diterpene (5α)-Vuacapane-8(14), 9(11)-Diene and of Some Related Compounds” (Molecules, 2022):
In brackets after ≈: the same amount, converted by molar mass. Several values for one entry are separate records, joined by “and”; a condition that tells them apart may be missing. Identical values can stand only once. Like-named read-outs stand apart in the source and are kept apart here.

Key:
[1] = tested on: RAW 264.7 monocyte/macrophage murine cells; experiment: MTT cytotoxicity on RAW 264.7 cells; type: cell-based; details: Mus musculus
Procedure: MTT is transformed to formazan in cells with metabolism capacity (viable cells), as the number of viable cells is proportional to formazan concentration; this assay was used to determine the cytotoxicity of the compounds.
In all experiments, subconfluent monolayer cells were used.
The effect of compounds on the cell viability was determined by the MTT method (Sigma, St. Louis, MO, USA). The cytotoxicity of the compounds was detected by measuring the absorbance of MTT dye staining of cells with metabolism capacity. […] Finally, after 72 h, 100 μL of MTT solution (0.5 mg/mL) in 50% of PBS and 50% of the medium was added to each well. After 1.5 h of incubation, formazan was re-suspended in 100 μL of DMSO, and each concentration was tested in triplicate.
(§1) Experimental cytotoxicity data were fitted to a sigmoidal function (y = ymax/ (x/a)^−b) by non-linear regression. […] Similar analyses were performed to obtain the IC50 of NO production (IC50 NO). All shown data are representative of at least two independent experiments performed in triplicate. All quantitative data were summarized as the means ± standard deviation (SD).

[2] = tested on: LPS-induced J774.A1 macrophage cells; parameters: method as in PMID 34990974; details: 50 μM, natural compounds; cited from earlier work
[3] = tested on: HT29 human colorectal adenocarcinoma cell line; experiment: MTT cytotoxicity on HT29 cells; details: HT-29, 72 h
Procedure: (§2) These studies were performed using the MTT assay, based on formazan dye formation and expressed as a percentage with respect to untreated control cells (100% of cell metabolism).
(§3) The effect of compounds on the cell viability was determined by the MTT method [27] (Sigma, St. Louis, MO, USA). The cytotoxicity of the compounds was detected by measuring the absorbance of MTT dye staining of cells with metabolism capacity. […] Finally, after 72 h, 100 μL of MTT solution (0.5 mg/mL) in 50% of PBS and 50% of the medium was added to each well. After 1.5 h of incubation, formazan was re-suspended in 100 μL of DMSO, and each concentration was tested in triplicate.
(§4) Experimental cytotoxicity data were fitted to a sigmoidal function (y = ymax/ (x/a)^−b) by non-linear regression. […] All shown data are representative of at least two independent experiments performed in triplicate. All quantitative data were summarized as the means ± standard deviation (SD).

[4] = tested on: HepG2 human hepatocarcinome cell-line; experiment: MTT cytotoxicity on HepG2 cells; details: HepG2, 72 h
Procedure: as §2, §3, §4

[5] = tested on: B16-F10 mouse melanoma cells; experiment: MTT cytotoxicity on B16-F10 cells
Procedure: as §2, §3, §4

[6] = tested on: LPS-stimulated RAW 264.7 murine macrophage cells; experiment: Inhibition of NO production (nitrite, Griess reaction) in LPS-stimulated RAW 264.7 cells; type: cell-based; details: for IC50: Mus musculus, RAW264.7, 72 h; for IC50 / IC50 NO: LPS-activated RAW 264.7, 72 h of incubation; for NO inhibition: 72 h
Procedure: The activation of the inflammatory process induces nitric oxide, NO, released as a second messenger. NO production can be used as the main indicator to assess inflammatory activity, which can be measured using nitrite (NO^2–) quantification (proportional to the released NO), determined through the Griess reaction. […] Inhibition percentages were calculated with respect to the increase between positive control (only LPS treated control cells) and negative control (untreated control cells).
The absorbance was referred to nitrite standard curve to determine the concentration of nitrite in the supernatant of each experimental sample. The percentage of NO production was determined, assigning 100% at the increase between negative control (untreated cells) and positive control (cells only treated with 10 μg/mL of LPS).
as §1

[7] = tested on: RAW 264.7 cells, activated by LPS; experiment: Cell cycle distribution of LPS-activated RAW 264.7 cells, flow cytometry with PI; type: cell-based, murine
Procedure: The cell-cycle distribution was analyzed by flow cytometry with propidium iodide (IP) staining (Figure 3). Significant growth arrest of the cell cycle in LPS-induced RAW 264.7 cells produced 100% detention in the G0/G1 phase (positive control) compared to the negative control (49.6%). After incubation with compound 20, the percentage of cells found in the G0/G1 phase was 29%, 32%, and 36%, respectively, at the assayed concentrations. Similar results were found for compound 16 (35%, 38%, and 39%) after 72 h of incubation at the same concentrations. This decrease was accompanied by the consequent increase in the number of cells in the S phase: 70%, 68%, and 56%, respectively, for compound 20, and 63%, 61%, and 59% for compound 16. […] This recovery of the cell cycle with respect to control cells (only LPS treated) could be a consequence of the anti-inflammatory effect produced by the tested compounds, which increase cell division, rescuing RAW 264.7 cells from LPS-induced arrest during their monocyte/macrophage differentiation process.
DNA content is directly proportional to the PI fluorescence; it allows us to determine the percentage of cells in each cell cycle phase. Using a fluorescence-activated cell sorter (FACS) at 488 nm in an Epics XL flow cytometer (Coulter Corporation, Hialeah, FL, USA), cell subpopulations could be visualized with different DNA contents. […] By treating cells only with LPS, the positive control was performed. However, the negative control was prepared, exposing cells […]. After treatment, cells were washed twice with PBS and trypsine solution, then resuspended in TBS 1X (10 Mm Tris, 150 Mm NaCl) and then Vindelov buffer (100 mM Tris, 100 Mm NaCl, 10 mg/mL Rnasa, 1 mg/mL PI, pH 8) was added. The samples were placed for 15 min on ice. Immediately before FACS analysis, cells were stained with 20 μL of 1 mg/mL PI solution. Data were analyzed to determine the percentage of cells in each cell cycle phase (G0/G1, S, and G2/M).

[8] = RAW264.7, RAW 264.7, MTT, 72 h of incubation, 20% cell viability inhibition, read-out: IC20
[9] = RAW264.7, RAW 264.7, MTT, 72 h of incubation, 80% cell viability inhibition, read-out: IC80
[10] = RAW264.7, RAW 264.7, MTT, 72 h of incubation, read-out: IC50

| SMILES | IC50 [4] [µg/mL] | IC50 ([5]; Mus musculus, B16-F10, 72 h) [µg/mL] | IC20 [1, 8] [µg/mL] | IC80 [1, 9] [µg/mL] | IC50 [1, 10] [µg/mL] | IC50 [6] [µg/mL] | IC50 ([3]; HT29, MTT, 72 h) [µg/mL] | IC50 ([5]; 72 h) | NO inhibition ([6]; at ¾ IC50 concentration) | other results |
| --- | --- | --- | --- | --- | --- | --- | --- | --- | --- | --- |
| Cc1c2c(cc3c1CC[C@H]1C(C)(C)CCC[C@]31C)OC(=O)C2 [Compound 5, pterolobirin H] |  |  |  |  |  |  |  |  |  | IC20 ([1]; RAW264.7, 72 h): 34.9 ± 2.11 µg/mL (≈ 117 µM); IC80 ([1]; RAW264.7, 72 h): 64.2 ± 3.29 µg/mL (≈ 215 µM) |
| Cc1c2c(cc3occc13)[C@@]1(C)CCCC(C)(C)[C@@H]1CC2 [Compound 7, (5a)-vouacapane-8(14),9(11)-diene] | 14 ± 0.5 (≈ 49.4 µM) | 31.7 ± 1.1 (≈ 112 µM) |  |  |  |  |  |  |  | IC20 ([1]; RAW264.7, 72 h): 50.9 ± 1.61 µg/mL (≈ 180 µM); IC50 ([1]; RAW264.7, 72 h): 57.5 ± 1.06 µg/mL (≈ 204 µM); IC80 ([1]; RAW264.7, 72 h): 65.5 ± 0.95 µg/mL (≈ 232 µM); inhibition of NO production [2]: did not show any significant inhibition of NO production; IC50 [3]: 20.7 ± 1.09 µg/mL (≈ 73.2 µM) |
| COC(=O)c1ccc2c(c1C(=O)OC)CC[C@H]1C(C)(C)CCC[C@]21C [Compound 14] | 33.8 ± 0.8 (≈ 98 µM) | < 10 | 22.92 ± 0.13 (≈ 66.5 µM) | 26.89 ± 0.02 (≈ 78.1 µM) | 24.67 ± 0.04 (≈ 71.6 µM) | 10.7 ± 1.14 (≈ 31.1 µM) | 15.4 ± 2.72 (≈ 44.8 µM) | 9.25 ± 0.74 µg/mL (≈ 26.9 µM) |  |  |
| COC(=O)C1=C(C(=O)OC)C2(C)CC[C@H]3C(C)(C)CCC[C@]3(C)C2=CC1 (some centres unmarked) [Compound 15] | 58.32 ± 0.32 (≈ 162 µM) | 13 ± 1.8 (≈ 36.1 µM) | 43.7 ± 2.37 (≈ 121 µM) | 83.67 ± 0.64 (≈ 232 µM) | 64.6 ± 1.39 (≈ 179 µM) | 7.98 ± 0.1 (≈ 22.1 µM) | 25.3 ± 0.89 (≈ 70.2 µM) |  |  |  |
| COC(=O)C1=C(C(=O)OC)C2(C)CC[C@H]3C(C)(C)CCC[C@]3(C)C2=CC1=O (some centres unmarked) [Compound 16] | 26.7 ± 0.88 (≈ 71.4 µM) | < 10 | 14.5 ± 0.68 (≈ 38.7 µM) |  | 26.7 ± 0.88 (≈ 71.4 µM) | 2.98 ± 0.04 (≈ 7.96 µM) | 11.9 ± 0.8 (≈ 31.8 µM) | 6.01 ± 0.41 µg/mL (≈ 16 µM) | 100% | IC50 NO [6]: 5.71 ± 0.14 µg/mL (≈ 15.2 µM); NO inhibition ([6]; at ¼ IC50 concentration): 100%; NO inhibition ([6]; at ½ IC50 concentration): 100%; cells in the S phase ([7]; ¼ IC50, 72 h): 63%; percentage of cells in the G0/G1 phase ([7]; ¼ IC50, 72 h, LPS control 100%, negative control 49.6%): 35%; changes in the G2/M phase ([7]; ¼, ½ and ¾ IC50, 72 h): not significant; cells in the S phase ([7]; ½ IC50, 72 h): 61%; percentage of cells in the G0/G1 phase ([7]; ½ IC50, 72 h): 38%; cells in the S phase ([7]; ¾ IC50, 72 h): 59%; percentage of cells in the G0/G1 phase ([7]; ¾ IC50, 72 h): 39% |
| COC(=O)c1c(O)cc2c(c1C(=O)OC)CC[C@H]1C(C)(C)CCC[C@]21C [Compound 17] | 8.15 ± 0.1 (≈ 22.6 µM) | < 10 | 4.95 ± 0.13 (≈ 13.7 µM) | 11.8 ± 2.97 (≈ 32.7 µM) | 7.49 ± 0.86 (≈ 20.8 µM) | 4.74 ± 1.27 (≈ 13.2 µM) | 5.96 ± 0.55 (≈ 16.5 µM) | 5.96 ± 0.55 µg/mL and 5.97 ± 0.55 µg/mL | 30.52% |  |
| COC(=O)c1c(O)cc2c(c1C)CC[C@H]1C(C)(C)CCC[C@]21C [Compound 18] | 13.57 ± 0.12 (≈ 42.9 µM) | < 10 | 7.32 ± 2.53 (≈ 23.1 µM) | 20.4 ± 0.26 (≈ 64.4 µM) | 13.1 ± 1.51 (≈ 41.4 µM) | 31.4 ± 4.9 (≈ 99.1 µM) | 30.7 ± 0.49 (≈ 96.9 µM) | 5.96 ± 0.35 µg/mL (≈ 18.8 µM) | 11.06% |  |
| Cc1c(CO)c(O)cc2c1CC[C@H]1C(C)(C)CCC[C@]21C [Compound 19] | 12.2 ± 1.78 (≈ 42.4 µM) | 48.8 ± 2.79 (≈ 169 µM) | 70.83 ± 0.28 (≈ 246 µM) | 78.94 ± 0.28 (≈ 274 µM) | 74.65 ± 0.17 (≈ 259 µM) | 27.57 ± 0.2 (≈ 95.6 µM) | 49 ± 0.72 (≈ 170 µM) |  |  |  |
| CC1(C)CCC[C@]2(C)c3cc(O)c(C=O)cc3CC[C@@H]12 [Compound 23] | 8.36 ± 1.77 (≈ 30.7 µM) | 4.33 ± 0.27 (≈ 15.9 µM) | 5.13 ± 0.18 (≈ 18.8 µM) | 6.8 ± 0.24 (≈ 25 µM) | 5.87 ± 0.18 (≈ 21.6 µM) | 3.22 ± 0.05 (≈ 11.8 µM) | 5.19 ± 0.17 (≈ 19.1 µM) |  | 78.48% | IC50 NO [6]: 3.32 ± 0.05 µg/mL (≈ 12.2 µM) |
| CC1(C)CCC[C@]2(C)c3cc(O)c(CO)cc3CC[C@@H]12 [Compound 24] | 24.2 ± 2.71 (≈ 88.3 µM) | 10.51 ± 0.01 (≈ 38.3 µM) | 9.09 ± 0.03 (≈ 33.1 µM) | 20.8 ± 0.48 (≈ 75.6 µM) | 13.94 ± 0.07 (≈ 50.8 µM) | 15.2 ± 2.13 (≈ 55.4 µM) | 17.4 ± 1.97 (≈ 63.5 µM) |  | did not cause any inhibition of NO release |  |
| CC1(C)CCC[C@]2(C)c3cc4c(cc3CC[C@@H]12)CC(=O)O4 [Compound 25] | 77.97 ± 0.72 (≈ 274 µM) | 74.3 ± 2.19 (≈ 261 µM) | 42.6 ± 0.74 (≈ 150 µM) | 66.33 ± 0.35 (≈ 233 µM) | 53.92 ± 0.36 (≈ 190 µM) | 22.58 ± 0.05 (≈ 79.4 µM) | 74.3 ± 2.19 (≈ 261 µM) |  | 72.24% |  |
